Measured values from PMC7933286, “Structure-guided selection of puromycin N-acetyltransferase mutants with enhanced selection stringency for deriving mammalian cell lines expressing recombinant proteins” (Scientific Reports, 2021).

Target: T1, PAC (puromycin N-acetyltransferase) (Streptomyces alboniger, UniProt P13249)
T1 construct: native full-length pac amplified from pBABE-puro, N-terminal His6-tag (pET43a), expressed in E. coli BL21(DE3); IMAC and Superdex 75; tag removal not mentioned
Assay: X-ray crystal structure
Format: binding

[1] = crystals grown with 2 mM AcCoA and 2 mM puromycin, pH 8.26, trapped reaction product

T1 sequence (P13249 whole entry): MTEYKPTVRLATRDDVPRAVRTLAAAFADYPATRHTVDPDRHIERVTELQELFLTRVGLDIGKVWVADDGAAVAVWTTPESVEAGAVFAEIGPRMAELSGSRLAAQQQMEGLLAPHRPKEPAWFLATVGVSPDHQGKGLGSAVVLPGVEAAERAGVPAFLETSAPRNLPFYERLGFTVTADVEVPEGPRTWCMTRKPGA

| Structure (SMILES) | X-ray crystal structure (crystals with 0.1 mM AcCoA, pH 9.0, acetyl donor site) | X-ray crystal structure [1] |
| --- | --- | --- |
| CC(=O)SCCNC(=O)CCNC(=O)[C@H](O)C(C)(C)COP(=O)(O)OP(=O)(O)OC[C@H]1O[C@@H](n2cnc3c(N)ncnc32)[C@H](O)[C@@H]1OP(=O)(O)O [acetyl-CoA] | allowed the initial structure to be solved with AcCoA bound | – |
| CC(C)(COP(=O)(O)OP(=O)(O)OC[C@H]1O[C@@H](n2cnc3c(N)ncnc32)[C@H](O)[C@@H]1OP(=O)(O)O)[C@@H](O)C(=O)NCCC(=O)NCCS [CoA] | – | The ligands modelled into this structure were CoA and N-acetylated puromycin |
| COc1ccc(C[C@H](NC(C)=O)C(=O)N[C@H]2[C@@H](O)[C@H](n3cnc4c(N(C)C)ncnc43)O[C@@H]2CO)cc1 [N-acetylated puromycin] | – | The ligands modelled into this structure were CoA and N-acetylated puromycin |
